Structures can show the parent of a compound that is named as a salt.
Molecular target: human α-thrombin (Homo sapiens, UniProt P00734)
Assay: In vitro assay for determining proteinase inhibition (thrombin Ki)
Assay type: biochemical
Conditions: 25° C., 0.05 M TRIS buffer pH 7.4, 0.15 M NaCl, 0.1% PEG; sar-PR-pna or Z-GPR-afc substrate; competitive inhibition assumed
Description: Unless otherwise stated, all NMR determinations were made using 400 MHz field strength. Ki data was obtained according to the procedure described in Lewis, et al. Thromb. Res. 1993, 70, 173 (assays of human-thrombin and human trypsin), and Lewis, et al. Thromb. Haemostasis 1995, 74, 1107-1112.
Relevant in vitro assays are referenced in Morrissette, et al., Bioorg. Med. Chem. Lett. 2004, 14, 4161-4164 and described in Lewis, et al. Thromb. Res. 1993, 70, 173 (assays of human α-thrombin and human trypsin), and Lewis, et al. Thromb. Haemostasis 1995, 74, 1107-1112. The assays were carried out at 25° C. in 0.05 M TRIS buffer pH 7.4, 0.15 M NaCl, 0.1% PEG. Trypsin assays also contained 1 mM CaCl2. In assays wherein rates of hydrolysis of a p-nitroanilide (pna) substrate were determined, a Thermomax 96-well plate reader was used was used to measure (at 405 nm) the time dependent appearance of p-nitroaniline. sar-PR-pna was used to assay human α-thrombin (Km=125 μM) and bovine trypsin (Km=125 μM). p-Nitroanilide substrate concentration was determined from measurements of absorbance at 342 nm using an extinction coefficient of 8270 cm^−1M^−1.
In certain studies with potent inhibitors (Ki<10 nM) where the degree of inhibition of thrombin was high, a more sensitive activity assay was employed. In this assay the rate of thrombin catalyzed hydrolysis of the fluorogenic substrate benzyloxycarbonyl-Gly-Pro-Arg-7-amino-4-trifluoromethylcoumarin (Z-GPR-afc, Lewis S. D. et al. (1998) J. Biol. Chem. 273, pp. 4843-4854) (Km=27 μM) was determined from the increase in fluorescence at 500 nm (excitation at 400 nm) associated with production of 7-amino-4-trifluoromethyl coumarin. Concentrations of stock solutions of Z-GPR-afc were determined from measurements of absorbance at 380 nm of the 7-amino-4-trifluoromethyl coumarin produced upon complete hydrolysis of an aliquot of the stock solution by thrombin.
Activity assays were performed by diluting a stock solution of substrate at least tenfold to a final concentration ≦0.1 Km into a solution containing enzyme or enzyme equilibrated with inhibitor. Times required to achieve equilibration between enzyme and inhibitor were determined in control experiments. Initial velocities of product formation in the absence (VO) or presence of inhibitor (Vi) were measured. Assuming competitive inhibition, and that unity is negligible compared Km/[S], [I]/e, and [I]/e (where [S], [I], and e respectively represent the total concentrations, of substrate, inhibitor and enzyme), the equilibrium constant (Ki) for dissociation of the inhibitor from the enzyme can be obtained from the dependence of VO/Vi on [I] shown in the following equation. VO/Vi=1+[I]/Ki

Row | Structure (SMILES) | Ki [nM]
1 | CC(C)(C)[C@@H](O)C(=O)N1CCNC[C@H]1C(=O)NCc1cc(Cl)ccc1CN [Example 2, (2S)—N-[2-(aminomethyl)-5-chlorobenzyl]-1-[(2R)-2-hydroxy-3,3-dimethylbutanoyl]piperazine-2-carboxamide bis trifluoroacetate salt] | 63
2 | CC(C)(C)[C@@H](O)C(=O)N1CCOC[C@H]1C(=O)NCc1cc(Cl)ccc1CN [Example 4, (3S)—N-[2-(aminomethyl)-5-chlorobenzyl]-4-[(2R)-2-hydroxy-3,3-dimethylbutanoyl]morpholine-3-carboxamide trifluoroacetate salt] | 32
3 | CC(C)(C)[C@@H](O)C(=O)N1CC[S+]([O-])C[C@H]1C(=O)NCc1cc(Cl)ccc1CN (stereo partly drawn) [Example 6, (3R)—N-[2-(aminomethyl)-5-chlorobenzyl]-4-[(2R)-2-hydroxy-3,3-dimethylbutanoyl]thiomorpholine-3-carboxamide 1-oxide trifluoroacetate (salt)] | 78
4 | CC(C)(C)[C@@H](O)C(=O)N1CCSC[C@H]1C(=O)NCc1cc(Cl)ccc1CN [Example 5, (3R)—N-[2-(aminomethyl)-5-chlorobenzyl]-4-[(2R)-2-hydroxy-3,3-dimethylbutanoyl]thiomorpholine-3-carboxamide trifluoroacetate salt] | 1.1
5 | CC(C)(C)[C@@H](O)C(=O)N1CCS(=O)(=O)C[C@H]1C(=O)NCc1cc(Cl)ccc1CN [Example 7, (3R)—N-[2-(aminomethyl)-5-chlorobenzyl]-4-[(2R)-2-hydroxy-3,3-dimethylbutanoyl]thiomorpholine-3-carboxamide 1,1-dioxide trifluoroacetate salt] | 52
6 | CC(C)(C)[C@@H](O)C(=O)N1CCCC[C@H]1C(=O)NCc1cc(Cl)ccc1CN [Example 1, (2S)—N-[2-(aminomethyl)-5-chlorobenzyl]-1-[(2R)-2-hydroxy-3,3-dimethylbutanoyl]piperidine-2-carboxamide trifluoroacetate salt] | 7.3
7 | CN1CCN(C(=O)[C@H](O)C(C)(C)C)[C@H](C(=O)NCc2cc(Cl)ccc2CN)C1 [Example 3, (2S)—N-[2-(aminomethyl)-5-chlorobenzyl]-1-[(2R)-2-hydroxy-3,3-dimethylbutanoyl]-4-methylpiperazine-2-carboxamide trifluoroacetate salt] | 34
